The target of one test is PARP1 (Homo sapiens, UniProt P09874). Nature of the test: PARP1-DNA enzymatic trapping assay. The conditions noted are these: 10 nM PARP1, 5 nM DNA probe, 2 mM NAD+, fluorescence polarization read at 30 minutes. Format: biochemical. How it is done: Enzymatic trapping assay is to measure the dissociation process of PARP1 from fluorescein-labeled DNA during the enzymatic activity. Assay was conducted at a total 10 μL of reaction volume, including 10 nM PARP1 and 5 nM DNA probe in the binding buffer (50 mM Tris-HCl pH 8.0, 50 mM NaCl, 1 mM MgCl2, 0.1 mM EDTA, and 0.01% IGEPAL), and was commenced by adding a final concentration of 2 mM NAD+ substrate.
Sequence of PARP1 (P09874 whole entry): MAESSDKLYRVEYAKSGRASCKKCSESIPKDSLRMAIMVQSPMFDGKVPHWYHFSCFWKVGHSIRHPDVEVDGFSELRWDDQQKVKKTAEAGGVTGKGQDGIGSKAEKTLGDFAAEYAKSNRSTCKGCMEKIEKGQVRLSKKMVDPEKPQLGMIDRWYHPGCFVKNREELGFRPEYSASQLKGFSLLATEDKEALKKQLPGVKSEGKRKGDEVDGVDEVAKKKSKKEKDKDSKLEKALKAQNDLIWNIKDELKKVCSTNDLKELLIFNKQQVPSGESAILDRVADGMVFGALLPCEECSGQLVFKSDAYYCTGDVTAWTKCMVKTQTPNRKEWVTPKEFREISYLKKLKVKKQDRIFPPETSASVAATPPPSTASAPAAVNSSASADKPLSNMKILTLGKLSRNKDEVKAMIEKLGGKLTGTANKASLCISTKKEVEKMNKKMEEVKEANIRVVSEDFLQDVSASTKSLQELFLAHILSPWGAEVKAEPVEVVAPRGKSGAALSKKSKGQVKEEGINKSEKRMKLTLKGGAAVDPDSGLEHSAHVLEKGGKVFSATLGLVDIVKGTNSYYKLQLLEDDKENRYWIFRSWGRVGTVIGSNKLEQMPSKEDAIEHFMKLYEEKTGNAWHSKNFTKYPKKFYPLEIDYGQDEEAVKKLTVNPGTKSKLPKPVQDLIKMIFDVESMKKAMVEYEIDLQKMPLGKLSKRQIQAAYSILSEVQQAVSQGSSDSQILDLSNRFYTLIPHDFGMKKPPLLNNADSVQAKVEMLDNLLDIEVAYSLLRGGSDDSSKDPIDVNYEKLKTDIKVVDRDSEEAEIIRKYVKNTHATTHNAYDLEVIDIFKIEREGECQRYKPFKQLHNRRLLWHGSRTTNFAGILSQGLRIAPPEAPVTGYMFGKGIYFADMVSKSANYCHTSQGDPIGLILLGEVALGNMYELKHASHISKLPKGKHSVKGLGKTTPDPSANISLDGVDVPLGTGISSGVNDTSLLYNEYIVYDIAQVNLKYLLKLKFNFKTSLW
PARP1 Poly-ADP ribosylation (PARylation) inhibitory assay was conducted with compounds dissolved in DMSO at a starting concentration of 5 μM. Dissolved compounds were added to 384-well microplate and premixed with PARPI enzyme and DNA probe for 20 minutes incubation. Enzymatic reactions were started by adding NAD+ to mixture, and each well was read at 30 minutes by microplate reader (VICTOR Nivo®, PerkinElmer) to detect the fluorescence polarization signal at 480 nm excitation/530 nm dual emission.
All measured IC50 values were calculated using four parameters dose-response inhibition model in GraphPad Prism 8.0.2 (La Jolla, California, USA, www.graphpad.com).

In a further test the target is PARP2 (Homo sapiens, UniProt Q9UGN5). Description: PARP2-FL displacement assay. Conditions: 20 nM PARP2, 3 nM PARPi-FL, 4 hours incubation, fluorescence polarization. It is filed as binding. As for the experimental part:
A potent PARP inhibitor (PARPi-FL, Cat No. 6461, Tocris Bioscience) conjugated to BDY FL fluorophore was adopted to characterize the activity of PARP2 by measuring the displacement of binding of PARPi-FL to PARP2. Compounds to be tested were prepared at a concentration of 1-10 mM, and made a 3-fold serial dilution by 100% DMSO in a polypropylene plate (Bio-One small volume microplate, black, Cat No. 784076, Greiner). 100 nL of test compounds were dispensed into a 384-well polypropylene microplate and added 10 μL of reaction solution including premixed 20 nM PARP2 and 3 nM PARPi-FL. After 4 hours of incubation at room temperature, the fluorescence polarization signal at 480/30 nm excitation and 530/30 nm dual emission was measured by VICTOR Nivo® multimode plate reader (PerkinElmer). All of the measured IC50 values were calculated using four parameters dose-response inhibition model in GraphPad Prism 8.0.2 (La Jolla, California, USA, www.graphpad.com).

The test system of the next test is MDA-MB-436 cells. Description: Cell proliferation assay (MDA-MB-436). It is filed as cell-based. The conditions noted are these: at least 7 days, Cell-Titer Glo, read-out: MDA-MB-436 anti-proliferation assay. As for the experimental part:
(§1) For PARPi sensitivity, exponentially growing MDA-MB-436 and DLD1 BRCA2^−/− cells were seed in 96 or 384-well plates at very low density with the goal of not splitting for at least 7 days (typically 0.3k-1.2k cells/well). Cells were plated on […] and treated with DMSO or increasing concentrations of PARP1 inhibitors on Day 0. At the end of the experiment, cell viability was estimated using Cell-Titer Glo (Promega).

The subject of another test is DLD1 BRCA2−/− cells. Nature of the test: Cell proliferation assay (DLD1 BRCA2−/−). The conditions noted are these: at least 7 days, Cell-Titer Glo, read-out: DLD1 BRCA2−/− anti-proliferation assay. It is filed as cell-based. As for the experimental part:
as §1

Where [1] appears, read: Homo sapiens, MDA-MB-436, 168 h.

Experimental findings from patent US20260226076A1, “FUSED MULTICYCLIC COMPOUNDS AND THEIR USE AS PARP1 INHIBITORS” (LAEKNA THERAPEUTICS SHANGHAI CO., LTD., priority 2022, published 2026) are described below.

Where two headings read alike, the source gives them in different places.

Sequence of PARP2 (Q9UGN5 whole entry): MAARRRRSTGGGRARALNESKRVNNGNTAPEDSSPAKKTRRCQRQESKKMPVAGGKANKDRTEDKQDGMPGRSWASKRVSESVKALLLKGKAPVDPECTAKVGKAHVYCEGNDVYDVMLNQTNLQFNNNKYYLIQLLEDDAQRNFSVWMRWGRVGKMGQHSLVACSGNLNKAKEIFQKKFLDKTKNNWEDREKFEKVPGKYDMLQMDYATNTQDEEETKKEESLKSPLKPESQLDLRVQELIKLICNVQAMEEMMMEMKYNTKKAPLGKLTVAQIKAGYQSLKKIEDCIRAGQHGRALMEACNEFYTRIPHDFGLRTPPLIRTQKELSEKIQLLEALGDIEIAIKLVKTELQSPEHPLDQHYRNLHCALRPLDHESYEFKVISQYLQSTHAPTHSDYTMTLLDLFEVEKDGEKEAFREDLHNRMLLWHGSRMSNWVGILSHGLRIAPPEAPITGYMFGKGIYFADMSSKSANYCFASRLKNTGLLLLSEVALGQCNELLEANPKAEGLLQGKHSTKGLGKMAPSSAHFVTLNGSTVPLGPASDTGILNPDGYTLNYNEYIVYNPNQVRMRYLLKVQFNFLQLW

With `CNC(=O)c1ccc(N2C[C@H]3CN(Cc4cnc5c6c(c(=O)[nH]c5c4)CCC6)C[C@@H]3C2)c(F)n1` [Compound 48], the IC50 at PARP1 worked out at 12 nM; on PARP2 it was 2050 nM; with MDA-MB-436 cells (setting [1]), 0.74 nM; in the test on DLD1 BRCA2−/− cells (Homo sapiens, DLD-1, 168 h) it was 1.02 nM.
On the same counts, the results for `CCc1cc2cnc(CN3C[C@@H]4CN(c5ccc(C(=O)NC)nc5F)C[C@H]4C3)cc2[nH]c1=O` [Compound 40] are 9.28 nM, 4050 nM, 0.62 nM and 0.77 nM.
Regarding `CNC(=O)c1ccc(N2C[C@H]3CN(Cc4cnc5c6c(c(=O)[nH]c5c4)CCCC6)C[C@@H]3C2)c(F)n1` [Compound 82], the IC50 at PARP1 came out at 13.1 nM; at PARP2, 185 nM; with MDA-MB-436 cells (setting [1]) it was 1.38 nM; in the test with DLD1 BRCA2−/− cells (Homo sapiens, DLD-1, 168 h), 0.55 nM.
On to `O=C(NC1COC1)c1ccc(N2C[C@H]3CN(Cc4ccc5c6c(c(=O)[nH]c5c4)COCC6)C[C@@H]3C2)c(F)n1` [Compound 69], for which the IC50 against PARP1 worked out at 2.92 nM; on PARP2 it was 676 nM; with MDA-MB-436 cells (setting [1]), 0.24 nM; with DLD1 BRCA2−/− cells (Homo sapiens, DLD-1, 168 h) it was 0.81 nM.
In the same order, the values of `O=C(NC1COC1)c1ccc(N2C[C@H]3CN(Cc4cnc5c(c4)[nH]c(=O)c4cccn45)C[C@@H]3C2)c(F)n1` [Compound 64] are 8.01 nM, 2900 nM, 0.24 nM and 0.55 nM.
On the same counts, the results for `CNC(=O)c1ccc(N2C[C@H]3CN(Cc4cc5[nH]c(=O)c6c(c5cn4)CCOC6)C[C@@H]3C2)c(F)n1` [Compound 77] are 7.73 nM, 1630 nM, 0.41 nM and 2.7 nM.
On the same counts, the results for `CNC(=O)c1ccc(N2C[C@H]3CN(Cc4cnc5c6c(c(=O)[nH]c5c4)COCC6)C[C@@H]3C2)c(F)n1` [Compound 71] are 5.05 nM, 500 nM, 0.18 nM and 0.44 nM.
Regarding `O=C(N[C@@H]1CCOC1)c1ccc(N2C[C@H]3CN(Cc4cnc5c6c(c(=O)[nH]c5c4)CCC6)C[C@@H]3C2)c(F)n1` [Compound 50], the IC50 at PARP1 is 7.86 nM; with MDA-MB-436 cells (setting [1]) it was 1.05 nM; in the test on DLD1 BRCA2−/− cells (Homo sapiens, DLD-1, 168 h), 4.04 nM.
On the same counts, the results for `CCc1cc2cnc(CN3C[C@@H]4CN(c5ccc(C(=O)NC)nc5)C[C@@H]4C3)cc2[nH]c1=O` [Compound 39] are 9.74 nM, 1.39 nM and 1.22 nM.
In the same order, the values of `CNC(=O)c1ccc(N2C[C@@H]3CN(Cc4ccc5c(c4F)NC(=O)C(C)O5)C[C@H]3C2)cn1` (mixture of isomers) [Compound 17] are greater than 500 nM, greater than 500 nM and 468 nM.
On the same counts, the results for `O=C(N[C@H]1CCOC1)c1ccc(N2C[C@H]3CN(Cc4cc5[nH]c(=O)c6c(c5cn4)CCC6)C[C@@H]3C2)c(F)n1` [Compound 57] are 18.9 nM, 1.24 nM and 8.41 nM.
Regarding `O=C(NC1COC1)c1ccc(N2C[C@H]3CN(Cc4ccc5c6c(c(=O)[nH]c5c4)COC6)C[C@@H]3C2)c(F)n1` [Compound 61], the IC50 at PARP1 was 9.14 nM; in the test with MDA-MB-436 cells (setting [1]) it was 1.35 nM; in the test with DLD1 BRCA2−/− cells (Homo sapiens, DLD-1, 168 h), 7.97 nM.
`O=C(NC1COC1)c1ccc(N2C[C@H]3CN(Cc4ccc5c6c(c(=O)[nH]c5c4)OCCC6)C[C@@H]3C2)c(F)n1` [Compound 89]: the IC50 against PARP1 turned out to be 4.32 nM; in the test with MDA-MB-436 cells (setting [1]), 1.08 nM; with DLD1 BRCA2−/− cells (Homo sapiens, DLD-1, 168 h), 8.28 nM.
Regarding `CNC(=O)c1ccc(N2C[C@@H]3CN(Cc4ccc5nc(C)c(=O)[nH]c5c4F)C[C@H]3C2)c(F)n1` [Compound 11], the IC50 at PARP1 was 323 nM; in the test with MDA-MB-436 cells (setting [1]), greater than 500 nM; in the test with DLD1 BRCA2−/− cells (Homo sapiens, DLD-1, 168 h), greater than 500 nM.
On to `CNC(=O)c1ccc(N2C[C@H]3CN(Cc4ccc5nc(C)c(=O)[nH]c5c4F)C[C@@H]3C2)c(F)n1` [Compound 10], for which the IC50 stood at 20.6 nM against PARP1; 7.84 nM with MDA-MB-436 cells (setting [1]); 4.92 nM in the test on DLD1 BRCA2−/− cells (Homo sapiens, DLD-1, 168 h).
`CCc1cc2ncc(CN3C[C@H]4CN(c5ccc(C(=O)NC)nc5F)C[C@@H]4C3)cc2[nH]c1=O` [Compound 28]: the IC50 on PARP1 was determined as 9.73 nM; with MDA-MB-436 cells, 3.93 nM; in the test with DLD1 BRCA2−/− cells, 5.02 nM.
Consider `CO[C@H]1C[C@H](NC(=O)c2ccc(N3C[C@H]4CN(Cc5cnc6c7c(c(=O)[nH]c6c5)COCC7)C[C@@H]4C3)c(F)n2)C1` [Compound 74], for which the IC50 against PARP1 amounted to 8.26 nM; in the test on MDA-MB-436 cells (setting [1]) it was 0.57 nM; in the test on DLD1 BRCA2−/− cells (Homo sapiens, DLD-1, 168 h) it was 4.98 nM.
On the same counts, the results for `CCC1Oc2ncc(CN3C[C@H]4CN(c5ccc(C(=O)NC6CC6)nc5)C[C@@H]4C3)cc2NC1=O` (mixture of isomers) [Compound 16] are greater than 500 nM, greater than 500 nM and greater than 500 nM.
In the same order, the values of `CNC(=O)c1ccc(N2C[C@H]3CN(Cc4cnc5cc(OC)c(=O)[nH]c5c4)C[C@@H]3C2)c(F)n1` [Compound 33] are 7.81 nM, 2.48 nM and 4.13 nM.
In the same order, the values of `CNC(=O)c1ccc(N2C[C@H]3CN(Cc4cnc5cc(C)c(=O)[nH]c5c4)C[C@@H]3C2)c(C)n1` [Compound 25] are 20.5 nM, 5.06 nM and 7.49 nM.
As for `CNC(=O)c1ccc(N2C[C@H]3CN(Cc4cc5[nH]c(=O)c(C)cc5cn4)C[C@@H]3C2)c(F)n1` [Compound 36], the IC50 against PARP1 came to 8.44 nM; in the test with MDA-MB-436 cells (setting [1]), 2.08 nM; with DLD1 BRCA2−/− cells (Homo sapiens, DLD-1, 168 h), 1.51 nM.
On the same counts, the results for `O=C(N[C@@H]1CCOC1)c1ccc(N2C[C@H]3CN(Cc4cc5[nH]c(=O)c6c(c5cn4)CCC6)C[C@@H]3C2)c(F)n1` [Compound 56] are 5.17 nM, 0.71 nM and 3.37 nM.
As to `COCCNC(=O)c1ccc(N2C[C@H]3CN(Cc4cc5[nH]c(=O)c6c(c5cn4)CCC6)C[C@@H]3C2)c(F)n1` [Compound 55], the IC50 at PARP1 was determined as 6.96 nM; in the test on MDA-MB-436 cells (setting [1]) it was 1.24 nM; with DLD1 BRCA2−/− cells (Homo sapiens, DLD-1, 168 h) it was 4.66 nM.
In the same order, the values of `CNC(=O)c1ccc(N2C[C@@H]3CN(Cc4cnc5cc(C)c(=O)[nH]c5c4)C[C@H]3C2)c(C)n1` [Compound 24] are greater than 500 nM, 407 nM and 371 nM.
As to `CCc1cc2ncc(CN3C[C@H]4CN(c5ccc(C(=O)NC)nc5)C[C@@H]4C3)cc2[nH]c1=O` (racemic) [Compound 2], the IC50 at PARP1 came to 10.7 nM; in the test with MDA-MB-436 cells, 0.4 nM; with DLD1 BRCA2−/− cells, 1.98 nM.
On to `Cc1cc2ncc(CN3C[C@H]4CN(c5ccc(C(=O)NC6CC6)nc5)C[C@@H]4C3)cc2[nH]c1=O` (racemic) [Compound 20], for which the IC50 on PARP1 was 16.6 nM; in the test with MDA-MB-436 cells (setting [1]) it was 3.47 nM; in the test on DLD1 BRCA2−/− cells (Homo sapiens, DLD-1, 168 h) it was 4.12 nM.
As to `O=C(N[C@H]1CCOC1)c1ccc(N2C[C@H]3CN(Cc4cnc5c6c(c(=O)[nH]c5c4)CCC6)C[C@@H]3C2)c(F)n1` [Compound 51], the IC50 stood at 7.36 nM against PARP1; 0.7 nM with MDA-MB-436 cells (setting [1]); 2.96 nM in the test with DLD1 BRCA2−/− cells (Homo sapiens, DLD-1, 168 h).
On the same counts, the results for `CNC(=O)c1ccc(N2C[C@@H]3CN(Cc4cnc5cc(C)c(=O)[nH]c5c4)C[C@H]3C2)c(F)n1` (racemic) [Compound 21] are 17.8 nM, 1.91 nM and 1.76 nM.
Regarding `CCc1cc2ncc(CN3C[C@@H]4CN(c5ccc(C(=O)NC)nc5)C[C@@H]4C3)cc2[nH]c1=O` [Compound 1], the IC50 against PARP1 was 42.9 nM; with MDA-MB-436 cells (setting [1]), 410 nM; in the test with DLD1 BRCA2−/− cells (Homo sapiens, DLD-1, 168 h), greater than 500 nM.
